Where “and” joins values, the source holds several entries; their conditions need not be identical. Equal values may be shown once.
Test: Drug association efficiency (AE %) of GT DcNPs by dialysis under sink conditions
Type: physicochemical
Conditions: in vitro dialysis under sink conditions, 4 h, batches 1-5 and average
Protocol: Ethanol was removed by controlled solvent evaporation at 60° C., followed by vacuum desiccation to remove residual solvent. The dry film was rehydrated to 100 mM lipids in 0.45% NaCl with 20 mM NaHCO3 buffer at 60° C. for 2 h. Particle size was reduced at ˜40° C. using a bath sonicator (Avanti Polar Lipids, Inc. Alabaster, Ala.) (5 min on, […], 3 cycles). GT DcNP formulations were stored at room temperature for further use. Particle size was determined by a NICOMP 380 ZLS (Particle Sizing Systems, Santa Barbara, Calif.). Drug extraction with acetonitrile followed by HPLC were used to quantify drugs in formulations. Drug association was measured by dialysis (6-8 kDa) of DcNP against 0.9% NaCl 20 mM NaHCO3 buffer for 4 h and quantification by HPLC.
Drug association efficiency (AE %) was determined by dialyzing 100 μl of the DcNP suspension (6-8 k MWCO) against 1000×volume (100 mL, pH=7.4) of bicarbonate buffered saline for 4 hours at room temperature. Drugs were extracted by acetonitrile and drug concentrations in pre and post-dialysis DcNP suspensions were measured with a Shimadzu HPLC-UV system (Kyoto, Japan). Chromatographic separation was achieved using a Kinetex C18 column (100 Å, 5 μm, 4.6 mm×100 mm) (Phenomenex, Torrance, Calif.). The flow rate was set to 1.0 mL/min with a 10 μl sample injection volume. The mobile phase for separation consisted of pump A (Acetonitrile) and B (10 mM Ammonium Acetate in water). The gradient program used was as follows: pump B was set to 40%, and increased to 100% over 5 minutes. […] AE % was calculated as the […] concentrations of G or T.

For Nc1ccn([C@@H]2O[C@H](CO)[C@@H](O)C2(F)F)c(=O)n1 [Gemcitabine, 4-amino-1-[(2R,4R,5R)-3,3-difluoro-4-hydroxy-5-(hydroxymethyl)oxolan-2-yl]pyrimidin-2-one], the “AE % (association efficiency of drug to DcNP)” value (“AE %” for short) was 9%, the “AE %” value (listed as G) was 9% and 9±1% and the “AE %” value (listed as GEM) was 10% and 8% and 7%. For the same compound, the “AE %” value (listed as GEM, mean) was 9%.

— US20230113802A1, “COMPOSITION AND METHOD TO PREPARE LONG-ACTING INJECTABLE SUSPENSION CONTAINING MULTIPLE CANCER DRUGS” (University of Washington, priority 2020, published 2023)
